Reference: PubChem BioAssay (NCI)
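Briefly, cells in 96-well plates were exposed to five compound concentrations for 48 h, and endpoints were estimated by linear interpolation. TGI: concentration producing complete growth inhibition.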

Columns and labels:
Assay in all cases: NCI tumour cell line growth inhibition, 48 h
NCI-H460 lung = system: NCI-H460 lung
IGROV1 ovarian = system: IGROV1 ovarian
PC-3 prostate = system: PC-3 prostate
HCT-116 colon = system: HCT-116 colon
A498 renal = system: A498 renal
M14 melanoma = system: M14 melanoma
TK-10 renal = system: TK-10 renal
NCI-H226 lung = system: NCI-H226 lung
ACHN renal = system: ACHN renal
UACC-257 melanoma = system: UACC-257 melanoma
MDA-N = system: MDA-N
BT-549 breast = system: BT-549 breast
NCI-H23 lung = system: NCI-H23 lung
HCT-15 colon = system: HCT-15 colon
786-0 renal = system: 786-0 renal
SW-620 colon = system: SW-620 colon
COLO 205 colon = system: COLO 205 colon
CAKI-1 renal = system: CAKI-1 renal
SK-MEL-28 melanoma = system: SK-MEL-28 melanoma
SF-268 CNS = system: SF-268 CNS
SF-295 CNS = system: SF-295 CNS
MALME-3M melanoma = system: MALME-3M melanoma
RPMI-8226 leukemia = system: RPMI-8226 leukemia
K-562 leukemia = system: K-562 leukemia
HT29 colon = system: HT29 colon
SNB-75 CNS = system: SNB-75 CNS
DU-145 prostate = system: DU-145 prostate
RXF 393 renal = system: RXF 393 renal
MOLT-4 leukemia = system: MOLT-4 leukemia
SR leukemia = system: SR leukemia
LOX IMVI melanoma = system: LOX IMVI melanoma
EKVX NSCLC = system: EKVX NSCLC
U251 CNS = system: U251 CNS
UACC-62 melanoma = system: UACC-62 melanoma
OVCAR-3 ovarian = system: OVCAR-3 ovarian
NCI/ADR-RES ovarian = system: NCI/ADR-RES ovarian
CCRF-CEM leukemia = system: CCRF-CEM leukemia
MCF7 breast = system: MCF7 breast
KM12 colon = system: KM12 colon
MDA-MB-231 breast = system: MDA-MB-231 breast
HL-60(TB) leukemia = system: HL-60(TB) leukemia
SN12C renal = system: SN12C renal
MDA-MB-435 = system: MDA-MB-435
SK-OV-3 ovarian = system: SK-OV-3 ovarian
SK-MEL-5 melanoma = system: SK-MEL-5 melanoma
OVCAR-8 ovarian = system: OVCAR-8 ovarian
SNB-19 CNS = system: SNB-19 CNS
SF-539 CNS = system: SF-539 CNS
HS 578T breast = system: HS 578T breast
SK-MEL-2 melanoma = system: SK-MEL-2 melanoma
HOP-62 NSCLC = system: HOP-62 NSCLC
OVCAR-5 ovarian = system: OVCAR-5 ovarian
NCI-H522 lung = system: NCI-H522 lung
HOP-92 NSCLC = system: HOP-92 NSCLC
HCC-2998 colon = system: HCC-2998 colon
A549 NSCLC = system: A549 NSCLC
UO-31 renal = system: UO-31 renal
OVCAR-4 ovarian = system: OVCAR-4 ovarian

Measured: TGI

Cn1c(=O)sc2cc(C(=S)N3CCCCC3)ccc21
55.4 µM: MALME-3M melanoma
> 100 µM: NCI-H460 lung | IGROV1 ovarian | PC-3 prostate | HCT-116 colon | A498 renal | M14 melanoma | TK-10 renal | NCI-H226 lung | ACHN renal | UACC-257 melanoma | MDA-N | BT-549 breast | NCI-H23 lung | HCT-15 colon | 786-0 renal | SW-620 colon | COLO 205 colon | CAKI-1 renal | SK-MEL-28 melanoma | SF-268 CNS | SF-295 CNS | RPMI-8226 leukemia | K-562 leukemia | HT29 colon | DU-145 prostate | RXF 393 renal | MOLT-4 leukemia | SR leukemia | LOX IMVI melanoma | EKVX NSCLC | U251 CNS | UACC-62 melanoma | OVCAR-3 ovarian | NCI/ADR-RES ovarian | MCF7 breast | KM12 colon | MDA-MB-231 breast | SN12C renal | MDA-MB-435 | SK-OV-3 ovarian | SK-MEL-5 melanoma | OVCAR-8 ovarian | SNB-19 CNS | SF-539 CNS | HS 578T breast | SK-MEL-2 melanoma | HOP-62 NSCLC | OVCAR-5 ovarian
43 µM: CCRF-CEM leukemia
86.5 µM: SNB-75 CNS
42.7 µM: HL-60(TB) leukemia

CCOc1cc2c(cc1O)C(O)C[C@@H]1[C@@H]2CC[C@]2(C)[C@@H](O)CC[C@@H]12 (stereo not given in full)
> 24.7 µM: NCI-H23 lung
3.6 µM: SF-539 CNS
25.1 µM: HT29 colon
0.497 µM: A498 renal
5.25 µM: RXF 393 renal
> 50.4 µM: OVCAR-8 ovarian
> 61.8 µM: SNB-19 CNS
> 100 µM: IGROV1 ovarian | PC-3 prostate | HCT-116 colon | M14 melanoma | HOP-92 NSCLC | TK-10 renal | NCI-H226 lung | ACHN renal | UACC-257 melanoma | BT-549 breast | HCT-15 colon | SW-620 colon | CAKI-1 renal | SK-MEL-28 melanoma | SF-268 CNS | MALME-3M melanoma | SNB-75 CNS | MOLT-4 leukemia | SR leukemia | A549 NSCLC | LOX IMVI melanoma | EKVX NSCLC | UO-31 renal | UACC-62 melanoma | OVCAR-3 ovarian | CCRF-CEM leukemia | MCF7 breast | KM12 colon | SN12C renal | MDA-MB-435 | SK-OV-3 ovarian | OVCAR-4 ovarian | HS 578T breast | SK-MEL-2 melanoma | HOP-62 NSCLC | OVCAR-5 ovarian
> 34 µM: RPMI-8226 leukemia
> 36.4 µM: K-562 leukemia
> 83 µM: 786-0 renal
0.326 µM: MDA-N
30.4 µM: HCC-2998 colon
60.8 µM: COLO 205 colon
4.04 µM: NCI/ADR-RES ovarian
> 74 µM: DU-145 prostate
0.95 µM: NCI-H522 lung
> 66 µM: MDA-MB-231 breast
